Measured values: patent EP1310511A2, “Oligopeptides for promoting hair growth” (Sumitomo Electric Industries, Ltd., priority 2001, dated 2003)
Where no end group is shown, it is not given here.

Tested on: C57BL/6 mice
Test: Evaluation of hair growth promoting activity by in vivo method (transition from telogen to anagen on shaved back)
Settings: 0.2 ml of 0.15mg/ml solution in 50% ethanol/PBS on shaved back, once a day, 5 days in a week, until 38th day
Method: C3H and C57BL/6 mice are known to have sustained telogen for about 50 days from the 45th day after the birth to around the 95th day. Their hair cycle is easily judged based on the skin color changes, i.e., from pink in telogen to gray or black in anagen. A test for evaluating whether or not the administration the oligopeptides of the present invention promotes the transition from telogen to anagen was carried out using the mice. Seven weeks old (48 to 50-day old, female) C57BL/6 mice were purchased and hair of the back (about 3×2.5 cm^2) was carefully shaved with electric clippers for animals so as not to injure the skin, and the hair cycle was confirmed to be in telogen from the skin color. The oligopeptide solution prepared above was applied to five mice in each group, once a day and 5 days in a week in the amount of 0.2 ml until 38th day from the start of the test. The application was carried out by using a syringe without needle. […]
Plural persons (two persons) observed the mice twice a week by naked eye for evaluation, and gave a 6-graded score depending on a ratio of hair restoration area based on the hair shaved area. […] Hair growth scores were calculated as follows. […] The sum of the above scores in each group was determined as the hair growth score. […]

Sequence: SIEQSCDQDE [oligopeptide comprising murine pep7 region]
- hair restoration / hair growth promoting activity (hair growth score versus control group): has hair growth promoting activity
